Patent publication EP0003359A1, “Specific optical isomers of 2-aminoethyl-1,4-benzodioxanes, process for their preparation and their pharmaceutical compositions” (CIBA-GEIGY AG, priority 1978, dated 1979)
Where a name gives a salt, the structure may show the parent alone.

Assays:
[1] = test system: genetisch hypertensive Ratten; assay: Blood pressure lowering in hypertensive rats (indirect sphygmomanometry on the tail); type: in vivo; details: perorale Dosen von 5 mg/kg/Tag und darunter, preferably as hydrochloride
From the text: (§1) Die Verbindungen der Erfindung zeigen wertvolle pharmakologische Eigenschaften, in erster Linie hypotensive, antihypertensive und bradykardische Wirkungen, welche unter anderem durch ihre a- und ß-adrenergischblockierenden, vasodilatorischen und ihre hemmenden Effekte auf das zentrale sympatische Nervensystem zustandekommen. Diese Wirkungen können in Tierversuchen, vorzugsweise an Säugetieren, wie Ratten, Katzen oder Hunden, als Testobjekte nachgewiesen werden. Die Tiere können normotensiv oder hypertensiv, z.B. genetisch hypertensive Ratten sein. Die genannten Verbindungen können ihnen enteral oder parenteral, vorzugsweise oral oder intravenös, z.B. durch Gelatine-Kapseln oder in Form von Stärke enthaltenden Suspensionen bzw. wässerigen Lösungen, verabreicht werden. Die verwendete Dosis kann in einem Bereich von ungefähr zwischen 0,01 und 50 mg/kg/Tag, vorzugsweise ungefähr O,1 und 10 mg/kg/Tag, insbesondere ungefähr 1 und 5 mg/kg/Tag liegen. Die blutdrucksenkende Wirkung wird entweder direkt mit einem Katheter, der z.B. in die femurale Arterie des Hundes eingeführt ist, oder indirekt durch Sphygmomanometrie am Rattenschwanz, und einem Uebertragungsinstrument, welches den Blutdruck vor und nach der Verabreichung des Wirkstoffes in mm Hg angibt, registriert. […]

[2] = test system: anesthätisierte, bilateral vagotomisierte Bastardhunde; assay: Bradycardic effect in anaesthetised, bilaterally vagotomised dogs with heart rate raised by electrical stimulation; type: in vivo; details: Canis lupus familiaris, intravenous, read-out: intravenöse Dosis, nach der die bradykardischen Wirkungen registriert werden können
From the text: as §1

C[C@H](CCc1ccccc1)NC[C@H](O)[C@H]1COc2ccccc2O1 [ℓ-erythro-2R-[2-(4-Phenyl-2R-butylamino)-1S-hydroxyäthyl]-1,4-benzodioxan-hydrochlorid]
blutdrucksenkende Wirkung [1]: sehr wirksam | minimal effective dose [2]: 0.03 mg/kg
